Assay results published in PubChem BioAssay (NCI).
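Dose response: 5 concentrations. Exposure: 48 h. Format: 96-well plates. Endpoint: linear interpolation; highest concentration if not reached. Abbreviation: GI50, concentration required for 50% inhibition of growth. TGI: concentration producing complete growth inhibition.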

Tests used:
Test in all cases: NCI-60 cell line screen, 48 h
SW-620 colon = tested on: SW-620 colon
OVCAR-5 ovarian = tested on: OVCAR-5 ovarian
HCT-116 colon = tested on: HCT-116 colon
HL-60(TB) leukemia = tested on: HL-60(TB) leukemia
M19-MEL melanoma = tested on: M19-MEL melanoma
SK-MEL-28 melanoma = tested on: SK-MEL-28 melanoma
COLO 205 colon = tested on: COLO 205 colon
SF-295 CNS = tested on: SF-295 CNS
A498 renal = tested on: A498 renal
OVCAR-4 ovarian = tested on: OVCAR-4 ovarian
KM12 colon = tested on: KM12 colon
NCI-H226 lung = tested on: NCI-H226 lung
NCI-H23 lung = tested on: NCI-H23 lung
DMS 114 small cell lung = tested on: DMS 114 small cell lung
EKVX NSCLC = tested on: EKVX NSCLC
HOP-18 NSCLC = tested on: HOP-18 NSCLC
SNB-19 CNS = tested on: SNB-19 CNS
786-0 renal = tested on: 786-0 renal
HOP-62 NSCLC = tested on: HOP-62 NSCLC
HT29 colon = tested on: HT29 colon
OVCAR-3 ovarian = tested on: OVCAR-3 ovarian
HCC-2998 colon = tested on: HCC-2998 colon
KM20L2 colon = tested on: KM20L2 colon
CAKI-1 renal = tested on: CAKI-1 renal
CCRF-CEM leukemia = tested on: CCRF-CEM leukemia
NCI-H460 lung = tested on: NCI-H460 lung
XF 498 CNS = tested on: XF 498 CNS
DMS 273 small cell lung = tested on: DMS 273 small cell lung
A549 NSCLC = tested on: A549 NSCLC
MALME-3M melanoma = tested on: MALME-3M melanoma
SR leukemia = tested on: SR leukemia
SNB-75 CNS = tested on: SNB-75 CNS
MOLT-4 leukemia = tested on: MOLT-4 leukemia
M14 melanoma = tested on: M14 melanoma
SN12C renal = tested on: SN12C renal
SNB-78 CNS = tested on: SNB-78 CNS
UO-31 renal = tested on: UO-31 renal
IGROV1 ovarian = tested on: IGROV1 ovarian
SK-MEL-2 melanoma = tested on: SK-MEL-2 melanoma
RPMI-8226 leukemia = tested on: RPMI-8226 leukemia
SK-MEL-5 melanoma = tested on: SK-MEL-5 melanoma
OVCAR-8 ovarian = tested on: OVCAR-8 ovarian
UACC-257 melanoma = tested on: UACC-257 melanoma
HOP-92 NSCLC = tested on: HOP-92 NSCLC
U251 CNS = tested on: U251 CNS
SK-OV-3 ovarian = tested on: SK-OV-3 ovarian
RXF 393 renal = tested on: RXF 393 renal
UACC-62 melanoma = tested on: UACC-62 melanoma
LOX IMVI melanoma = tested on: LOX IMVI melanoma
NCI-H522 lung = tested on: NCI-H522 lung
LXFL 529 NSCLC = tested on: LXFL 529 NSCLC
DLD-1 colon = tested on: DLD-1 colon
SF-268 CNS = tested on: SF-268 CNS
K-562 leukemia = tested on: K-562 leukemia
ACHN renal = tested on: ACHN renal
TK-10 renal = tested on: TK-10 renal
HCT-15 colon = tested on: HCT-15 colon
SF-539 CNS = tested on: SF-539 CNS
RXF-631 renal = tested on: RXF-631 renal

C[CH2][Sn]([CH2]C)([O]C(=O)c1ccccc1F)[O][Sn]([CH2]C)([CH2]C)[O]C(=O)c1ccccc1F
GI50 (SW-620 colon): 20.3 µM | TGI (SW-620 colon): 36.5 µM | GI50 (OVCAR-5 ovarian): > 49.3 µM | TGI (OVCAR-5 ovarian): > 71.4 µM | GI50 (HCT-116 colon): 38 µM | TGI (HCT-116 colon): > 70.9 µM | GI50 (HL-60(TB) leukemia): 43.3 µM | TGI (HL-60(TB) leukemia): > 75.7 µM | GI50 (M19-MEL melanoma): 28.6 µM | TGI (M19-MEL melanoma): > 100 µM | GI50 (SK-MEL-28 melanoma): 18.7 µM | TGI (SK-MEL-28 melanoma): 33.4 µM | GI50 (COLO 205 colon): 25.6 µM | TGI (COLO 205 colon): > 57.9 µM | GI50 (SF-295 CNS): 42.1 µM | TGI (SF-295 CNS): > 57.8 µM | GI50 (A498 renal): 22.5 µM | TGI (A498 renal): 37.4 µM | GI50 (OVCAR-4 ovarian): > 51.7 µM | TGI (OVCAR-4 ovarian): > 82.8 µM | GI50 (KM12 colon): > 67.6 µM | TGI (KM12 colon): > 100 µM | GI50 (NCI-H226 lung): 20.2 µM | TGI (NCI-H226 lung): 37.6 µM | GI50 (NCI-H23 lung): 15.8 µM | TGI (NCI-H23 lung): 33.6 µM | GI50 (DMS 114 small cell lung): 15.8 µM | TGI (DMS 114 small cell lung): 30 µM | GI50 (EKVX NSCLC): 33.9 µM | TGI (EKVX NSCLC): > 100 µM | GI50 (HOP-18 NSCLC): 22.7 µM | TGI (HOP-18 NSCLC): 51.6 µM | GI50 (SNB-19 CNS): > 43.6 µM | TGI (SNB-19 CNS): > 57.6 µM | GI50 (786-0 renal): 25.2 µM | TGI (786-0 renal): > 56.6 µM | GI50 (HOP-62 NSCLC): > 100 µM | TGI (HOP-62 NSCLC): > 100 µM | GI50 (HT29 colon): 39.8 µM | TGI (HT29 colon): > 72.7 µM | GI50 (OVCAR-3 ovarian): > 42 µM | TGI (OVCAR-3 ovarian): > 56.3 µM | GI50 (HCC-2998 colon): > 43.7 µM | TGI (HCC-2998 colon): > 73.8 µM | GI50 (KM20L2 colon): > 51.2 µM | TGI (KM20L2 colon): > 77.9 µM | GI50 (CAKI-1 renal): 14.2 µM | TGI (CAKI-1 renal): 27.7 µM | GI50 (CCRF-CEM leukemia): 4.67 µM | TGI (CCRF-CEM leukemia): 21.6 µM | GI50 (NCI-H460 lung): > 54 µM | TGI (NCI-H460 lung): > 100 µM | GI50 (XF 498 CNS): 16.1 µM | TGI (XF 498 CNS): 29.9 µM | GI50 (DMS 273 small cell lung): > 62.6 µM | TGI (DMS 273 small cell lung): > 100 µM | GI50 (A549 NSCLC): > 100 µM | TGI (A549 NSCLC): > 100 µM | GI50 (MALME-3M melanoma): 14.9 µM | TGI (MALME-3M melanoma): 30.4 µM | GI50 (SR leukemia): 34.6 µM | TGI (SR leukemia): > 100 µM | GI50 (SNB-75 CNS): 25.1 µM | TGI (SNB-75 CNS): > 57.8 µM | GI50 (MOLT-4 leukemia): 22 µM | TGI (MOLT-4 leukemia): > 75.3 µM | GI50 (M14 melanoma): 26.5 µM | TGI (M14 melanoma): > 57.2 µM | GI50 (SN12C renal): 27 µM | TGI (SN12C renal): > 57.4 µM | GI50 (SNB-78 CNS): 18.7 µM | TGI (SNB-78 CNS): 46.7 µM | GI50 (UO-31 renal): > 72.4 µM | TGI (UO-31 renal): > 100 µM | GI50 (IGROV1 ovarian): > 87.8 µM | TGI (IGROV1 ovarian): > 100 µM | GI50 (SK-MEL-2 melanoma): 19.1 µM | TGI (SK-MEL-2 melanoma): 38.6 µM | GI50 (RPMI-8226 leukemia): 20.9 µM | TGI (RPMI-8226 leukemia): > 100 µM | GI50 (SK-MEL-5 melanoma): 41.2 µM | TGI (SK-MEL-5 melanoma): > 70.3 µM | GI50 (OVCAR-8 ovarian): > 62 µM | TGI (OVCAR-8 ovarian): > 100 µM | GI50 (UACC-257 melanoma): 18.4 µM | TGI (UACC-257 melanoma): 35.4 µM | GI50 (HOP-92 NSCLC): 19 µM | TGI (HOP-92 NSCLC): 34.7 µM | GI50 (U251 CNS): 17.1 µM | TGI (U251 CNS): 31.6 µM | GI50 (SK-OV-3 ovarian): > 50.5 µM | TGI (SK-OV-3 ovarian): > 90.3 µM | GI50 (RXF 393 renal): 14.1 µM | TGI (RXF 393 renal): 27.9 µM | GI50 (UACC-62 melanoma): 18.1 µM | TGI (UACC-62 melanoma): 35.1 µM | GI50 (LOX IMVI melanoma): 19.4 µM | TGI (LOX IMVI melanoma): 37.1 µM | GI50 (NCI-H522 lung): 1.24 µM | TGI (NCI-H522 lung): 2.61 µM | GI50 (LXFL 529 NSCLC): 9.79 µM | TGI (LXFL 529 NSCLC): 22.1 µM | GI50 (DLD-1 colon): 18.4 µM | TGI (DLD-1 colon): 54.7 µM | GI50 (SF-268 CNS): 23.2 µM | TGI (SF-268 CNS): 50.7 µM | GI50 (K-562 leukemia): 13.5 µM | TGI (K-562 leukemia): 36.6 µM | GI50 (ACHN renal): 18.7 µM | TGI (ACHN renal): 33 µM | GI50 (TK-10 renal): 18 µM | TGI (TK-10 renal): 32.1 µM | GI50 (HCT-15 colon): 34.3 µM | TGI (HCT-15 colon): > 62.8 µM | GI50 (SF-539 CNS): 20.5 µM | TGI (SF-539 CNS): 46.9 µM

O=C1/C(=N\O)S(=O)(=O)c2ccccc21
TGI (SW-620 colon): > 100 µM | TGI (OVCAR-5 ovarian): > 100 µM | TGI (HCT-116 colon): > 100 µM | TGI (HL-60(TB) leukemia): > 100 µM | TGI (M19-MEL melanoma): > 100 µM | TGI (COLO 205 colon): > 100 µM | TGI (SF-295 CNS): > 100 µM | TGI (A498 renal): > 100 µM | TGI (OVCAR-4 ovarian): > 100 µM | TGI (KM12 colon): > 100 µM | TGI (NCI-H226 lung): > 100 µM | TGI (DMS 114 small cell lung): > 100 µM | TGI (HOP-18 NSCLC): > 100 µM | TGI (SNB-19 CNS): > 100 µM | TGI (786-0 renal): > 100 µM | TGI (HOP-62 NSCLC): > 100 µM | TGI (HT29 colon): > 100 µM | TGI (HCC-2998 colon): > 100 µM | TGI (KM20L2 colon): > 100 µM | TGI (CAKI-1 renal): > 100 µM | TGI (CCRF-CEM leukemia): > 100 µM | TGI (NCI-H460 lung): > 100 µM | TGI (DMS 273 small cell lung): > 100 µM | TGI (A549 NSCLC): > 100 µM | TGI (MALME-3M melanoma): > 100 µM | TGI (SR leukemia): > 100 µM | TGI (SNB-75 CNS): > 100 µM | TGI (MOLT-4 leukemia): > 100 µM | TGI (M14 melanoma): > 100 µM | TGI (SN12C renal): > 100 µM | TGI (SNB-78 CNS): > 100 µM | TGI (UO-31 renal): > 100 µM | TGI (IGROV1 ovarian): > 100 µM | TGI (SK-MEL-2 melanoma): > 100 µM | TGI (RPMI-8226 leukemia): > 100 µM | TGI (SK-MEL-5 melanoma): > 100 µM | TGI (OVCAR-8 ovarian): > 100 µM | TGI (UACC-257 melanoma): > 100 µM | TGI (HOP-92 NSCLC): > 100 µM | TGI (U251 CNS): > 100 µM | TGI (SK-OV-3 ovarian): > 100 µM | TGI (RXF 393 renal): > 100 µM | TGI (UACC-62 melanoma): > 100 µM | TGI (RXF-631 renal): > 100 µM | TGI (LOX IMVI melanoma): > 100 µM | TGI (NCI-H522 lung): > 100 µM | TGI (LXFL 529 NSCLC): > 100 µM | TGI (DLD-1 colon): > 100 µM | TGI (SF-268 CNS): > 100 µM | TGI (K-562 leukemia): > 100 µM | TGI (ACHN renal): > 100 µM | TGI (TK-10 renal): > 100 µM | TGI (HCT-15 colon): > 100 µM | TGI (SF-539 CNS): > 100 µM
